Read-outs that look alike come from different tables or passages of the source. Values belong to the compound of their own block, whether it stands above or below them.
Key:
[1] = tested on: HCT116 cells; assay: MTT cytotoxicity screening, human colon cancer cell line HCT116; format: cell-based; conditions: Homo sapiens
Text: Human colon cancer cell line HCT116 can be used for the preliminary cytotoxicity screening of the disclosed compounds as disclosed by Mosmann, T., “Rapid colorimetric assay for cellular growth and survival: application to proliferation and cytotoxicity assays.” J. Immunol. Methods, (1983) 65(1-2): p. 55-63 referred to herein further as the “MTT test” which is incorporated herein by reference in its entirety.
The disclosure of Mosmann recites the following. “MTT 93-(4,5-dimethylthirazol-2-yl)-2,5-diphenyl tetrazolium bromide; Sigman catalog no. M2128) was dissolved in PBS at 5 mg/ml and filtered to sterilize and remove a small amount of insoluble residue present in some batches of MTT. At the times indicated below, stock MTT solution (10 ml per 100 ml) was added to all wells of an assay, and plates were incubated at 37° C. for 4 h. Acid-siopropanol (100 ml of 0.04 N HCl in isopropanol) was added to all wells and mixed thoroughly to dissolve the dark blue crystals. After a few minutes at room temperature to ensure that all crystals were dissolved, the plates were read o a Dynatech MR580Microelisa reader, using a test wavelength of 570 nm, a reference wavelength of 630 nm, and a calibration setting of 1.99 (or 1.0 if the samples were strongly colored). Plates were normally read within 1 h of adding the isopropanol.
“Our final procedure was to add 0.01 ml MTT (5 mg/ml in phosphate-buffered saline) to 0.1 ml cells in growth medium. After 4 h at 37° C. for MTT cleavage, the formazan product was solublilized by the addition of 0.1 ml 0.04 N HCl in isopropanol. Optical density was measured on a Dynatech MR 580 plate reader, using a reference wavelength of 630 nm and a test wavelength of 570 nm.” 3-(4,5-Dimethylthiazol-2-yl)-2,5-diphenyltetrazolium bromide, a tetrazole, can pass through cellular membrane to enter into cells. This tetrazole may be reduced to the purple formazan in the mitochondria of living cells, which can diffuse out to form crystals. This crystal can be dissolved in the dimethyl sulfoxide to form a colored solution. The absorbance of this colored solution can be quantified by measuring at certain wavelength (490 nm) using a spectrophotometer. The quantity of the formazan crystal is proportional to the number of living cells.
As used herein, cells were cultured in McCoy's 5A medium supplemented with 10% heat-inactivated Fetal Bovine Serum (FBS) and 5% Penicillin/Streptomycin solution. McCoy's 5A, 1× (Iwakata & Grace modified) medium with L-Glutamine, DPBS, 1× w/o Ca and Mg, Penicillin/Streptomycin solution, Trypsin EDTA, 1× and PBS, 1× w/o Ca and Mg were purchased from Mediatech, Inc. (USA). FBS was purchased from Hyclone (USA).
The cytotoxicity of the compounds was estimated using the MTT assay. A 96-well plate was seeded with 100 μl medium containing HCT116 cells in suspension at a density of 2.5×10^4 cells/ml. After 24 hours of incubation, the cells were treated with the compounds, which were dissolved in DMSO (dimethyl sulfoxide) as stock solutions and diluted to final concentrations of 100 μM, 50 μM, 25 μM, 12.5 μM, 6.25 μM & 1 μM (for compounds tested in the micromolar concentrations) and 10 μM, 1 μM, 500 nM, 250 nM, 125 nM & 62.5 nM (for compounds tested in the nanomolar concentration range) using medium containing 0.1% DMSO. The final concentration of DMSO in the culture medium was maintained at 0.1%-0.001% (v/v). After 48 hrs incubation in the presence of test compounds, the spent medium was removed and the wells were washed twice with 100 μL of PBS solution. 100 μL of fresh medium and 10 μL of MTT (5 mg/ml in PBS) was added to the wells and incubated at 37° C. in dark for 4 hrs. The formazan product was dissolved by adding 100 μL of 100% DMSO after removing the medium from each well and was stabilized by adding 12.5 μL of Sorensen's glycine buffer to each well. […]

[2] = HCT-116, 48 hrs incubation, absorbance 490 nm, primary screening, read-out: IC50

melting point: 159 to 160 °C
SMILES: COc1ccc(/C=C/C(=O)c2c(OC)cc(OC)c(CN3CCOCC3)c2O)cc1 [Compound D2, (E)-1-(2-hydroxy-4,6-dimethoxy-3-(morpholin-4-ylmethyl)phenyl)-3-(4-methoxyphenyl)-2-propylene-1-one]
IC50 [1, 2]: 21.4 µM

melting point: 140 to 141 °C
SMILES: COc1cc(OC)c(C(=O)/C=C/c2ccc(Cl)cc2)c(O)c1CN1CCOCC1 [Compound D3, (E)-3-(4-chlorophenyl)-1-(2-hydroxy-4,6-dimethoxy-3-(morpholin-4-ylmethyl)phenyl)-2-propylene-1-one]
IC50 [1, 2]: 6.97 µM

melting point: 144 to 145 °C
SMILES: COc1cc(OC)c(C(=O)/C=C/c2ccc(Br)cc2)c(O)c1CN1CCOCC1 [Compound D4, (E)-3-(4-bromophenyl)-1-(2-hydroxy-4,6-dimethoxy-3-(morpholin-4-ylmethyl)phenyl)-2-propylene-1-one]
IC50 [1, 2]: 5.52 µM
IC50 ([1]; HCT-116, further evaluated after secondary screening (Table VIII), read-out: IC50 value): ~3 µM

melting point: 135 to 136 °C
SMILES: COc1cc(OC)c(C(=O)/C=C/c2cccc(Cl)c2)c(O)c1CN1CCOCC1 [Compound D5, (E)-3-(3-chlorophenyl)-1-(2-hydroxy-4,6-dimethoxy-3-(morpholinemethyl)phenyl)-2-propylene-1-one]
IC50 [1, 2]: 2.8 µM

melting point: 169 to 170 °C
SMILES: COc1cccc(/C=C/C(=O)c2c(OC)cc(OC)c(CN3CCOCC3)c2O)c1 [Compound D6, (E)-3-(3-methoxyphenyl)-1-(2-hydroxy-4,6-dimethoxy-3-(morpholinemethyl)-phenyl)-2-propylene-1-one]
IC50 [1, 2]: 2.17 µM

SMILES: COc1cc(OC)c(C2=CCN(C)CC2)c(O)c1C(=O)/C=C/c1ccco1 [Compound E1, (E)-3-(furan-2-yl)-1-(2-hydroxy-4,6-dimethoxy-3-(1-methyl-1,2,3,6-tetrahydro-pyridine-4-yl)phenyl)-2-propylene-1-one]
melting point: 145 to 146 °C
IC50 [1, 2]: 10.2 µM

SMILES: COc1cc(OC)c(C2=CCNCC2)c(O)c1C(=O)/C=C/c1ccco1 [Compound E2, (E)-3-(furan-2-yl)-1-(2-hydroxy-4,6-dimethoxy-3-(1,2,3,6-tetrahydropyridin-4-yl)phenyl)-2-propylene-1-one]
melting point: 119 to 120 °C
IC50 [1, 2]: 11.1 µM

melting point: 95 to 96 °C
SMILES: COc1cc(OC)c(C(=O)/C=C/c2ccco2)c(O)c1CN1CCCCC1 [Compound E31, (E)-3-(furan-2-yl)-1-(2-hydroxy-4,6-dimethoxy-3-(piperidine-1-ylmethyl)phenyl)-2-propylene-1-one]
IC50 [1, 2]: 8.52 µM

melting point: 147 to 148 °C
SMILES: COc1cc(OC)c(C(=O)/C=C/c2ccco2)c(O)c1CN1CCOCC1 [Compound E32, (E)-3-(furan-2-yl)-1-(2-hydroxy-4,6-dimethoxy-3-(morpholin-4-ylmethyl)phenyl)-2-propylene-1-one]
IC50 [1, 2]: 45.7 µM

SMILES: COc1cc(OC)c2c(=O)cc(-c3ccc(C)cc3)oc2c1C1=CCN(C)CC1 [Compound F3, 5,7-dimethoxy-8-(1-methyl-1,2,3,6-tetrahydropyridin-4-yl)-2-(4-methylphenyl)-4H-chromen-4-one]
melting point: 113 to 114 °C
IC50 [1, 2]: 21.1 µM

SMILES: COc1ccc(-c2cc(=O)c3c(OC)cc(OC)c(C4=CCN(C)CC4)c3o2)cc1 [Compound F4, 5,7-dimethoxy-8-(1-methyl-1,2,3,6-tetrahydropyridin-4-yl)-2-(4-methoxyphenyl)-4H-chromen-4-one]
melting point: 179 to 181 °C
IC50 [1, 2]: 17.3 µM

SMILES: COc1cc(OC)c2c(=O)cc(-c3ccc(N(C)C)cc3)oc2c1C1=CCN(C)CC1 [Compound F5, 5,7-dimethoxy-8-(1-methyl-1,2,3,6-tetrahydropyridin-4-yl)-2-(4-(dimethylamino)-phenyl)-4H-chromen-4-one]
melting point: 148 to 150 °C
IC50 [1, 2]: 7.71 µM

SMILES: COc1cccc(-c2cc(=O)c3c(OC)cc(OC)c(C4=CCN(C)CC4)c3o2)c1OC [Compound F6, 5,7-dimethoxy-8-(1-methyl-1,2,3,6-tetrahydropyridin-4-yl)-2-(2,3-dimethoxy-phenyl)-4H-chromen-4-one]
melting point: 195 to 196 °C
IC50 [1, 2]: 61.3 µM

SMILES: COc1ccc(-c2cc(=O)c3c(OC)cc(OC)c(C4=CCN(C)CC4)c3o2)c(OC)c1OC [Compound F7, 5,7-dimethoxy-8-(1-methyl-1,2,3,6-tetrahydropyridin-4-yl)-2-(2,3,4-trimethoxy-phenyl)-4H-chromen-4-one]
melting point: 209 to 210 °C
IC50 [1, 2]: 9.17 µM

SMILES: COc1cc(-c2cc(=O)c3c(OC)cc(OC)c(C4=CCN(C)CC4)c3o2)cc(OC)c1OC [Compound F8, 5,7-dimethoxy-8-(1-methyl-1,2,3,6-tetrahydropyridin-4-yl)-2-(3,4,5-trimethoxy-phenyl)-4H-chromen-4-one]
melting point: 211 to 212 °C
IC50 [1, 2]: 25.9 µM

SMILES: Cc1cccc(-c2cc(=O)c3c(O)cc(O)c(C4=CCN(C)CC4)c3o2)c1 [Compound G2, 5,7-hydroxy-8-(1-methyl-1,2,3,6-tetrahydropyridin-4-yl)-2-(3-methylphenyl)-4H-chromen-4-one]
melting point: 179 to 180 °C
IC50 [1, 2]: 3.65 µM

SMILES: Cc1ccc(-c2cc(=O)c3c(O)cc(O)c(C4=CCN(C)CC4)c3o2)cc1 [Compound G3, 5,7-hydroxy-8-(1-methyl-1,2,3,6-tetrahydropyridin-4-yl)-2-(4-methylphenyl)-4H-chromen-4-one]
melting point: 160 to 161 °C
IC50 [1, 2]: 3.42 µM

SMILES: COc1ccc(-c2cc(=O)c3c(O)cc(O)c(C4=CCN(C)CC4)c3o2)cc1 [Compound G4, 5,7-hydroxy-8-(1-methyl-1,2,3,6-tetrahydropyridin-4-yl)-2-(4-methoxyphenyl)-4H-chromen-4-one]
melting point: 190 to 191 °C
IC50 [1, 2]: 3.16 µM

From patent US20120121692A1, “COMPOUNDS AND COMPOSITIONS COMPRISING CDK INHIBITORS AND METHODS FOR TREATING CANCER” (SHANDONG UNIVERSITY, priority 2009, published 2012)
